The values that follow come from patent US7196110B2, “N-substituted tricyclic 3-aminopyrazoles as inhibitors for the treatment of cell proliferative disorders” (Janssen Phamaceutica N.V., priority 2002, dated 2007).

Read-outs that look alike come from different tables or passages of the source.

This experiment addresses T1, PDGF-receptor beta enzyme comprising the tyrosine kinase domain (Homo sapiens, UniProt P09619).
T1 construct: from amino acid 545 to 1106 of GenBank Access NO: AAA36427
The experiment in a line: Inhibition of PDGF-receptor kinase activity (cell-free, PLC1 peptide, 33P Flashplate). Type of experiment: biochemical. Particulars: for inhibition at 10 µM: compound at 10 uM, read-out: Percent Inhibition @ 10 uM. The procedure, abridged:
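The IC50 is the inhibitor level halving kinase activity relative to inhibitor-free wells, measured as 33P captured on a streptavidin-bound biotin-PLC1 peptide. The reaction ran 60 min at 30 °C in pH 8 Tris buffer with 1 mM DTT, 5 μM ATP and the 545–1106 kinase-domain enzyme.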

The mark [1] stands for this setting: PDGF-R kinase activity, read-out: IC50.
Where [2] appears, read: read-out: IC50 (μM) on PDGF-R kinase activity.

T1 sequence (P09619 545-1106): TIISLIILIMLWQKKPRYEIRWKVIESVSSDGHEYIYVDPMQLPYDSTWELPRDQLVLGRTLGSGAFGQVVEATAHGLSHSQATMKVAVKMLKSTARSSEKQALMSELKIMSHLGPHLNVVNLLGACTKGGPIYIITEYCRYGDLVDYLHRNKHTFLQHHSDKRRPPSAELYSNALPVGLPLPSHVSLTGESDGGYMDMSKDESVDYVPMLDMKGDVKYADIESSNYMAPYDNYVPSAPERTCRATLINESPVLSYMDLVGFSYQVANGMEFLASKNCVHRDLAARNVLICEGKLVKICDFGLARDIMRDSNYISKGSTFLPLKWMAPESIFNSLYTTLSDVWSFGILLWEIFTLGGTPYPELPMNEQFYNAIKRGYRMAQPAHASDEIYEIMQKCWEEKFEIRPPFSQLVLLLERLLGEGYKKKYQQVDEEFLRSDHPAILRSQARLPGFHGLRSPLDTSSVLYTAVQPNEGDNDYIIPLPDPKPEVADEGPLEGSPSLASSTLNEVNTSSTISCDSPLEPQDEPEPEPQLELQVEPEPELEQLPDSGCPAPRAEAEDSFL

`Brc1cccc(Nc2[nH]nc3c2Cc2c(OCCN4CCCC4)cccc2-3)c1` [Compound 478, (3-Bromo-phenyl)-[5-(2-pyrrolidin-1-yl-ethoxy)-2,4-dihydro-indeno[1,2-c]pyrazol-3-yl]-amine]: the inhibition at 10 µM (PDGF-R kinase activity) came out at 93.5%. Moreover, under setting [1], the IC50 was 0.162 µM.

Consider `COc1cc2c(cc1OC)-c1c(c(Nc3cccc(F)c3)nn1C(=O)NCCN1CCCC1)C2` [Compound 520, 3-(3-Fluoro-phenylamino)-6,7-dimethoxy-4H-indeno[1,2-c]pyrazole-1-carboxylic acid (2-pyrrolidin-1-yl-ethyl)-amide], for which the inhibition at 10 µM (PDGF-R kinase activity) came out at 100%. For the same molecule, the 50% inhibitory concentration (IC50) under setting [1] amounted to 0.0653 µM. With `Fc1ccc2c(c1)Cc1c-2n[nH]c1Nc1ccc(OC(F)(F)F)cc1` [Compound 238, (6-Fluoro-2,4-dihydro-indeno[1,2-c]pyrazol-3-yl)-(4-trifluoromethoxy-phenyl)-amine], the inhibition at 10 µM (PDGF-R kinase activity) was 87%. Also, under setting [1], the IC50 was 0.419 µM. For `c1ccc(Nc2[nH]nc3c2CCc2ccccc2-3)cc1` [Compound 93, (4,5-Dihydro-2H-benzo[g]indazol-3-yl)-phenyl-amine], in that order: 88% and 1.03 µM. In the case of `CCOc1cccc(Nc2[nH]nc3c2C(CC)c2cc(OC)c(OC)cc2-3)c1` (centres unmarked) [Compound 505, (3-Ethoxy-phenyl)-(4-ethyl-6,7-dimethoxy-2,4-dihydro-indeno[1,2-c]pyrazol-3-yl)-amine], the inhibition at 10 µM (PDGF-R kinase activity) came to 97%. Also, under setting [1], the half-inhibitory concentration (IC50) turned out to be 0.134 µM. For `Fc1ccc2c(c1)Cc1c-2n[nH]c1Nc1cc(C(F)(F)F)cc(C(F)(F)F)c1` [Compound 239, (3,5-Bis-trifluoromethyl-phenyl)-(6-fluoro-2,4-dihydro-indeno[1,2-c]pyrazol-3-yl)-amine], in that order: 91% and 0.138 µM. In the same order, the values of `COc1cc2c(cc1OC)-c1c(c(Nc3cccc(F)c3)nn1C(=O)NCCN1CCOCC1)C2` [Compound 521, 3-(3-Fluoro-phenylamino)-6,7-dimethoxy-4H-indeno[1,2-c]pyrazole-1-carboxylic acid (2-morpholin-4-yl-ethyl)-amide] are 97% and 0.0559 µM.

Regarding `CCOc1cc2c(cc1OCCCO)-c1n[nH]c(Nc3cccc(F)c3)c1C2` [Compound 365, 3-[6-Ethoxy-3-(3-fluoro-phenylamino)-2,4-dihydro-indeno[1,2-c]pyrazol-7-yloxy]-propan-1-ol], the inhibition at 10 µM (PDGF-R kinase activity) is 99.5%. The IC50 under setting [1] came out at 0.0113 µM.

Consider `CNC(=S)n1nc2c(c1Nc1cccc(F)c1)Cc1cc(OC)c(OC)cc1-2` [Compound 580, 3-(3-Fluoro-phenylamino)-6,7-dimethoxy-4H-indeno[1,2-c]pyrazole-2-carbothioic acid methylamide], for which the inhibition at 10 µM (PDGF-R kinase activity) was 93%. Besides, under setting [2], the IC50 turned out to be 0.126 µM.

As to `COc1cc2c(cc1OC)-c1nn([C@@H]3O[C@H](C(=O)O)[C@@H](O)[C@H](O)[C@H]3O)c(Nc3cccc(F)c3)c1C2` [Compound 529, 6-[3-(3-Fluoro-phenylamino)-6,7-dimethoxy-4H-indeno[1,2-c]pyrazol-2-yl]-3,4,5-trihydroxy-tetrahydro-pyran-2-carboxylic acid], for the setting “PDGF-R kinase activity”, the inhibition at 10 µM came to 44%. Besides, under setting [1], the 50% inhibitory concentration (IC50) turned out to be 10.6 µM.

For the molecule `Cc1cccc2c1Cc1c-2n[nH]c1Nc1ccc(OC(F)(F)F)cc1` [Compound 104, (5-Methyl-2,4-dihydro-indeno[1,2-c]pyrazol-3-yl)-(4-trifluoromethoxy-phenyl)-amine], the inhibition at 10 µM (PDGF-R kinase activity) worked out at 36%. Moreover, the IC50 under setting [1] was determined as 0.666 µM.

With `CN(C)CCCOc1cccc2c1Cc1c-2n[nH]c1Nc1ccccc1` [Compound 71, [5-(3-Dimethylamino-propoxy)-2,4-dihydro-indeno[1,2-c]pyrazol-3-yl]-phenyl-amine], the inhibition at 10 µM (PDGF-R kinase activity) is 110%. For the same molecule, the IC50 under setting [1] was 0.185 µM. Take `CN1CCN(c2ccc3c(c2)Cc2c-3n[nH]c2Nc2ccccc2)CC1` [Compound 64, [6-(4-Methyl-piperazin-1-yl)-2,4-dihydro-indeno[1,2-c]pyrazol-3-yl]-phenyl-amine]: the inhibition at 10 µM (PDGF-R kinase activity) came out at 118%. Also, under setting [1], the IC50 was 0.449 µM.

Consider `COc1cc2c(cc1O)-c1n[nH]c(Nc3cccc(F)c3)c1C2` [Compound 608, 3-(3-Fluoro-phenylamino)-6-methoxy-2,4-dihydro-indeno[1,2-c]pyrazol-7-ol], for which the inhibition at 10 µM (PDGF-R kinase activity) was determined as 106%. The IC50 under setting [2] came to 0.026 µM.

Regarding `COc1cc2c(cc1OC)C(C)c1c-2n[nH]c1Nc1cccc(SC)c1` (centres unmarked) [Compound 255, (6,7-Dimethoxy-4-methyl-2,4-dihydro-indeno[1,2-c]pyrazol-3-yl)-(3-methylsulfanyl-phenyl)-amine], the inhibition at 10 µM (PDGF-R kinase activity) worked out at 90%. Moreover, the IC50 under setting [1] came out at 0.162 µM. With `COc1cc2c(cc1OC)-c1c(c(Nc3cccc(F)c3)nn1C(=O)NCCNC(=O)c1ccccc1O)C2` [Compound 542, 3-(3-Fluoro-phenylamino)-6,7-dimethoxy-4H-indeno[1,2-c]pyrazole-1-carboxylic acid [2-(2-hydroxy-benzoylamino)-ethyl]-amide], the inhibition at 10 µM (PDGF-R kinase activity) amounted to 21%. On to `COc1cc2c(cc1OC)-c1n[nH]c(Nc3cccc(C(=O)NCCCN4CCCC4)c3)c1C2` [Compound 298, 3-(6,7-Dimethoxy-2,4-dihydro-indeno[1,2-c]pyrazol-3-ylamino)-N-(3-pyrrolidin-1-yl-propyl)-benzamide], for which, where the note is “PDGF-R kinase activity”, the inhibition at 10 µM amounted to 92%. The IC50 under setting [1] turned out to be 0.408 µM. Take `COc1cc2c(cc1F)Cc1c-2n[nH]c1NCc1ccccc1C` [Compound 425, (6-Fluoro-7-methoxy-2,4-dihydro-indeno[1,2-c]pyrazol-3-yl)-(2-methyl-benzyl)-amine]: for the setting “PDGF-R kinase activity”, the inhibition at 10 µM worked out at 96%. The IC50 under setting [1] worked out at 0.0023 µM.

Regarding `CC(C)Oc1cc2c(cc1OC(C)C)-c1n[nH]c(Nc3cccc(F)c3)c1C2` [Compound 169, (6,7-Diisopropoxy-2,4-dihydro-indeno[1,2-c]pyrazol-3-yl)-(3-fluoro-phenyl)-amine], where the note is “PDGF-R kinase activity”, the inhibition at 10 µM stood at 89%. Further, the IC50 under setting [1] stood at 0.036 µM. Regarding `COc1cccc(Nc2[nH]nc3c2C(C)c2cc(OC(C)C)c(OC(C)C)cc2-3)c1` (centres unmarked) [Compound 355, (6,7-Diisopropoxy-4-methyl-2,4-dihydro-indeno[1,2-c]pyrazol-3-yl)-(3-methoxy-phenyl)-amine], the inhibition at 10 µM (PDGF-R kinase activity) came to 85%. Besides, the IC50 under setting [1] was 1.03 µM.

`Cc1ccc2c(c1)-c1n[nH]c(Nc3ccc(OC(F)(F)F)cc3)c1C2` [Compound 186, (7-Methyl-2,4-dihydro-indeno[1,2-c]pyrazol-3-yl)-(4-trifluoromethoxy-phenyl)-amine]: the inhibition at 10 µM (PDGF-R kinase activity) amounted to 78%. In addition, the IC50 under setting [1] turned out to be 0.414 µM. For `Cc1ccc2c(c1)-c1n[nH]c(Nc3cc(C(C)(C)C)cc(C(C)(C)C)c3)c1C2` [Compound 312, (3,5-Di-tert-butyl-phenyl)-(7-methyl-2,4-dihydro-indeno[1,2-c]pyrazol-3-yl)-amine], in that order: 56.5% and 5.67 µM. For `COC(=O)Cn1nc(Nc2cccc(F)c2)c2c1-c1cc(OC)c(OC)cc1C2` [Compound 509, [3-(3-Fluoro-phenylamino)-6,7-dimethoxy-4H-indeno[1,2-c]pyrazol-1-yl]-acetic acid methyl ester], the inhibition at 10 µM (PDGF-R kinase activity) was determined as 30.5%.

In general, inhibition refers to the relative decrease from the control value, in per cent. Usually IC50 stands for the concentration that gives 50% inhibition.
